Laboratory results taken from patent US20190070113A1, “Treating Ephrin Receptor A2 (Epha2) Positive Cancer with Targeted Docetaxel-Generating Nano-Liposome Compositions” (Merrimack Pharmaceuticals, Inc., priority 2016, published 2019).

Legend:
[1] = Short-term tolerance test of 46scFv-ILs-DTXp3 with Gemcitabine or Carboplatin; type: in vivo, CD-1 female mice; conditions: for histopathology: individual hepatocyte necrosis: carboplatin combo and mono, gemcitabine combo with 46scFv-ILs-DTXp3 100 mpk; for histopathology: extramedullary hematopoiesis in the spleen: carboplatin mono and combo, Gemcitabine combo with 46scFv-ILs-DTXp3 100 mpk
Experimental: Gemcitabine and Carboplatin are chemotherapeutic agents likely to be combined with 46scFv-ILs-DTXp3 in the clinic. Gemcitabine alone is well tolerated in mice; most protocols list an MTD for i.p. dosing around 240 mpk q3d. […] The stock concentration of 46scFv-ILs-DTXp3 was 11.09 mg/ml. Carboplatin was purchased from Hospira Inc and used at a stock concentration of 10 mg/ml. Gemcitibine was purchased from Sun Pharam and used at a stock concentration of 38 mg/ml.
CD-1 female mice (7-8 week old) were obtained from Charles River. During the treatment phase mice body weight was monitored daily. In order to assess the effect of drug scheduling on tolerability, animals were treated with a single dose of 46scFv-ILs-DTXp3 followed by a dose of either carboplatin or gemcitabine at various dose levels and starting at different timepoints post 46scFv-ILs-DTXp3 treatment (Table 3). Additionally, a single treatment group treated with carboplatin or gemcitabine was added.
At study end (10 days after last drug dose, i.e. day 10 for 8 h, day 11 for 24 h, and day 13 for 72 h combinations), mice were euthanized with carbon dioxide. Blood was collected by cardiac puncture. Catalyst analysis used an EQUINE-15 clip with an additional individual ALT assay added (Idexx, Westbrook, Mass.). Tissues collected included liver, kidney, spleen, heart, skeletal muscle (with skin attached). Tissues were fixed in 10% neutral buffered formalin ˜24 h, then stored in 70% ethanol. Tissues from mice in the highest-dose groups (all time points) as well as untreated and single-agent controls were shipped to Mass Histology Inc (Worcester, Mass.) for processing, and H&E staining of sectioned tissues. Received slides were scanned at 20X on the aperio bright field scanner.

[2] = tested on: human ovarian patient derived model OVx-132; test: Combination with carboplatin in ovarian patient derived model OVx-132; type: in vivo, Immunodeficient mice; conditions: for growth arrest and tumor regression: docetaxel 5 mg/kg, 46scFv-ILs-DTXp3 25 mg/kg, carboplatin 60 mg/kg, combinations dosed 3 days apart, carboplatin first; for Time-to-tumor regrowth (TTR; time for tumor to double its volume): monitored 160 days
Experimental: Immunodeficient mice were implanted with human ovarian patient derived model OVx-132. Animals randomized into the following experimental groups: Saline, docetaxel at 5 mg/kg, 46scFv-ILs-DTXp3 at 25 mg/kg, carboplatin 60 mg/kg, carboplatin/docetaxel, and carboplatin/46scFv-ILs-DTXp3. For the combinations groups carboplatin/docetaxel and carboplatin/46scFv-ILs-DTXp3 doses used for the monotherapy arms were combined and dosed 3 days a part with carboplatin being dosed first followed by the docetaxel or 46scFv-ILs-DTXp3.
The animals received four tail vein injections, at the intervals of 7 days. Tumor size was monitored once to twice weekly.
Tumor volume(TV)=[(length)×(width)^2]/2
Maximum response was calculated using the following formula where TV is tumor volume:
Max tumor regression=[(TVmin−TVday0)/TVday0]×100
Maximum tumor regression was classified as complete tumor regression (100% regression with no palpable tumor), partial tumor regression (max tumor regression more than 30%) or no tumor regression.
Animals were monitored until tumor regrowth or end of monitoring period (>120 days). Time to regrowth was defined as time for tumor to double its volume. Animals sacrificed prior to tumor volume doubling are censored.

Hydrolysis in buffer = type: physicochemical; conditions: 37° C.
Experimental: A volume of a 10 mg/mL solution of drug in DMSO as needed to provide the desired concentration (typically 16 μL to yield a 80 μg/mL solution) (see Table 1) is placed in a glass test tube or 4 mL vial. Additional DMSO may also be added (e.g. 64 μL when using 16 μL of drug solution) to yield a final total DMSO concentration of 4%. The DMSO solutions are mixed by brief vortexing, and then 2 mL (20 mM) HEPES buffer for pH 7.5 and 2 mL of (20 mM) phosphate buffer for pH 2.5 is added and the mixture is vortexed again. The initial pH may be adjusted by addition of HCl or NaOH.
Then 100 μL aliquots of the buffer solution of drug are transferred into HPLC vials and incubated in a 37° C. water bath. The remaining solution is also incubated at 37° C. in 4 mL vials for monitoring of pH.
At each time point 900 μL of 0.1% trifluoroacetic acid (TFA) in acetonitrile (ACN) is added to the HPLC vial and the contents are vortexed. The vials are then placed in an autosampler rack at 4° C. for HPLC analysis.
Time zero data points are typically obtained from a solution of 4 μL DMSO stock in 5 mL of 0.1% TFA/ACN (8 μg/mL).
HPLC analysis is performed on a SYNERGI 4 micron Polar RP-80A, 250×4.6 mm column, using a flow rate of 1 mL./min, a 50 μL injection volume, column temperature of 25° C. and with UV detection at 227 nm. Most compounds are analyzed using a 13 min gradient (Method A) from 30 to 66% acetonitrile in aqueous 0.1% TFA, followed by a 1 min gradient back to 30% and a hold at 30% for 6 minutes. If the retention time is too long for this method, a 20 min gradient (Method B) of 30 to 90% acetonitrile, followed by a 1 min return to 30% and held for 9 min at 30% is employed.
The extent of hydrolysis is reported in Table 4 below as the % PTX or DTX formation based on relative peak areas.

[3] = tested on: Pancreatic PDX model #15010; test: Efficacy in pancreatic patient derived xenograft #15010 (PDX 15010-P5)
Experimental: (§1) Experiments were performed according to approved guidelines. CB.17 SCID mice were obtained from Roswell Park Cancer Institute, initially at 6-8 weeks of age. Per treatment group, 8 animals were treated, unless otherwise indicated. Tumor pieces were derived from donor mice and engrafted subcutaneously. Depending on the variability in tumor growth, animals were either randomized to the different arms at one specific timepoint or a rolling randomization was performed in which a subgroup of animals were randomized through a period of time to ensure less variability in starting sizes. Animals were randomized and dosing initiated when tumors reached an average volume of 200-250 mm^3 (range 100-400 mm^3), unless otherwise indicated.
(§2) For efficacy experiments, 46scFv-ILs-DTXp3 were generated as described in composition description.
(§3) Intravenous administration of the indicated doses of each agent was initiated when tumors reached an average volume of 200-250 mm^3 and continued for a total of four weekly doses. Tumor volumes were measured once to twice weekly during the dosing cycle and until tumors regrow or reaching maximum monitoring period of 120-160 days or animals were in poor general health and needed to be sacrificed. The tumor progression was monitored by palpation and caliper measurements of the tumors along the largest (length) and smallest (width) axis twice a week. The tumor sizes were determined twice weekly from the caliper measurements using the formula (Geran, R. I., et al., 1972 Cancer Chemother. Rep. 3:1-88):
(§4) Tumor volume (TV)=[(length)×(width)^2]/2
(§5) Single tumor volume curves for each animal were plotted and two metrics that describe antitumor effects were calculated as follows:
(§6) 1) Max Response=[(minimum TV−TV at day 0)/TV at day 0]×100
(§7) 2) Time to regrowth=Time for the tumor to reach four times its initial size
(§8) All statistical analysis between treatment groups was performed using JMP v11.0 software. For treatment group comparison, two-way ANOVA analysis was performed in conjunction with post hoc Tukey HSD statistical analysis.

#12424 PDX tumor model = test: Efficacy in pancreatic patient derived xenograft #12424 (PDX 12424-8P); conditions: for growth inhibition versus saline control: both dose levels (Gemcitabine 35 and 100 mg/kg; Oxaliplatin 5 and 10 mg/kg)
Experimental: as §1, §2
Intravenous administration of the indicated doses of each agent was initiated when tumors reached an average volume of 200-250 mm^3 and continued for a total of four weekly doses. Tumor volumes were measured once to twice weekly during the dosing cycle and until tumors regrow or reaching maximum monitoring period of 120-160 days or animals were in poor general health and needed to be sacrificed. The tumor progression was monitored by palpation and caliper measurements of the tumors along the largest (length) and smallest (width) axis twice a week.
as §4, §5, §6, §7, §8
Model #12424 was maintained by passaging tumor fragments in immunodeficient mice. This PDX model was at passage 8 for study #12424-8P.

PDX model #14244 = test: Efficacy in patient derived xenograft #14244 (PDX 14244-9P); conditions: for maximal tumor response to drug compared to control group: both dose levels
Experimental: The pancreatic xenograft model series are true xenotransplant models that were directly engrafted from patient tumor resections into SCID mice for propagation and maintained by transplantation of tumor fragments (Hylander et al., 2005, 2013). […] CB.17 SCID mice were obtained from Roswell Park Cancer Institute, initially at 6-8 weeks of age. Per treatment group, 8 animals were treated, unless otherwise indicated. Tumor pieces were derived from donor mice and engrafted subcutaneously. Depending on the variability in tumor growth, animals were either randomized to the different arms at one specific timepoint or a rolling randomization was performed in which a subgroup of animals were randomized through a period of time to ensure less variability in starting sizes. Animals were randomized and dosing initiated when tumors reached an average volume of 200-250 mm^3 (range 100-400 mm^3), unless otherwise indicated.
For efficacy experiments, 46scFv-ILs-DTXp3 were generated as described in composition description. […] MM-398 was generated in house using the final commercial process.
as §3, §4, §5, §6, §7, §8
Model #14244 was maintained by passaging tumor fragments in immunodeficient mice. This PDX model was at passage 9 for study #14244-9P.

[4] = mice; i.p. dosing q3d; most protocols list; cited from earlier work

Experimental for PDX 14244-10P: CB.17 SCID mice were obtained from Roswell Park Cancer Institute, initially at 6-8 weeks of age. Per treatment group, 8 animals were treated, unless otherwise indicated. Tumor pieces were derived from donor mice and engrafted subcutaneously. Depending on the variability in tumor growth, animals were either randomized to the different arms at one specific timepoint or a rolling randomization was performed in which a subgroup of animals were randomized through a period of time to ensure less variability in starting sizes. Animals were randomized and dosing initiated when tumors reached an average volume of 200-250 mm^3 (range 100-400 mm^3), unless otherwise indicated.
Intravenous administration of the indicated doses of each agent was initiated when tumors reached an average volume of 200-250 mm^3 and continued for a total of four weekly doses. Tumor volumes were measured once to twice weekly during the dosing cycle and until tumors regrow or reaching maximum monitoring period of 120-160 days or animals were in poor general health and needed to be sacrificed. The tumor progression was monitored by palpation and caliper measurements of the tumors along the largest (length) and smallest (width) axis twice a week. The tumor sizes were determined twice weekly from the caliper measurements using the formula (Geran, R. I., et al., 1972 Cancer Chemother. Rep. 3:1-88): […]

## N.N.O=C([O-])C1(C(=O)[O-])CCC1.[Pt+2] [Carboplatin]
[1]; Carboplatin 84 mg/kg dosed 8 h or 24 h after 46scFv-ILs-DTXp3 100 mpk, regained weight by day 10-11
  weight loss in individual mice at day 6: at most 10%
[1]; highest-dose groups
  histopathology: individual hepatocyte necrosis: increased incidence of individual hepatocyte necrosis (minimal to mild)
  histopathology: extramedullary hematopoiesis in the spleen: Increased extramedullary hematopoieisis (EMH) in the spleen
[1]; carboplatin treated groups, highest-dose groups
  histopathology: mitotic rate in the liver: increase in mitotic rate in the liver
[2]
  growth arrest and tumor regression: minimal growth arrest and no tumor regression
  Time-to-tumor regrowth (TTR; time for tumor to double its volume): minor delay on time to regrowth

## CC(=O)O[C@@]12CO[C@@H]1C[C@H](O)[C@@]1(C)C(=O)[C@H](O)C3=C(C)[C@@H](OC(=O)[C@H](OC(=O)CCCN(C)C)[C@@H](NC(=O)OC(C)(C)C)c4ccccc4)C[C@@](O)([C@@H](OC(=O)c4ccccc4)[C@H]21)C3(C)C.Cl [Compound 4]
Hydrolysis in buffer; pH 2.5, 0 h
  Percentage of Hydrolysis (% DTX formation): 0.00%
Hydrolysis in buffer; pH 2.5, 5 h
  Percentage of Hydrolysis (% DTX formation): 0.00%
Hydrolysis in buffer; pH 2.5, 24 h
  Percentage of Hydrolysis (% DTX formation): 0.00%
Hydrolysis in buffer; pH 2.5, 48 h
  Percentage of Hydrolysis (% DTX formation): 0.00%
Hydrolysis in buffer; pH 2.5, 96 h
  Percentage of Hydrolysis (% DTX formation): 0%
Hydrolysis in buffer; pH 7.5, 0 h
  Percentage of Hydrolysis (% DTX formation): 0.00%
Hydrolysis in buffer; pH 7.5, 5 h
  Percentage of Hydrolysis (% DTX formation): 76.07%
Hydrolysis in buffer; pH 7.5, 24 h
  Percentage of Hydrolysis (% DTX formation): 100.00%
Hydrolysis in buffer; pH 7.5, 48 h
  Percentage of Hydrolysis (% DTX formation): 100.00%
Hydrolysis in buffer; pH 7.5, 96 h
  Percentage of Hydrolysis (% DTX formation): 100%

## O=C1[O][Pt]2([NH][C@@H]3CCCC[C@H]3[NH]2)[O]C1=O [Oxaliplatin]
[3]; 10 mg/kg
  tumor growth inhibition relative to control (time to regrowth): 30 days
[3]; both treatment doses
  maximal tumor response to drug versus saline control: did not show a statistically significant difference from saline control
#12424 PDX tumor model
  growth inhibition versus saline control: statistically insignificant from saline control
PDX model #14244; 5 mg/kg
  delay of regrowth over control group (time to regrowth): 2 days
PDX model #14244; 10 mg/kg
  delay of regrowth over control group (time to regrowth): 1 days
PDX model #14244
  maximal tumor response to drug compared to control group: did not demonstrate a significant tumor response to drug

## Nc1ccn([C@@H]2O[C@H](CO)[C@@H](O)C2(F)F)c(=O)n1 [Gemcitabine]
[1]; Gemcitabine 292 mg/kg, 72 h post-46scFv-ILs-DTXp3
  growth (body weight): least growth of the 292 mg/kg groups
[1]; Gemcitabine 292 mg/kg, 72 h post-46scFv-ILs-DTXp3, study end
  ALT and AST: elevated ALT and AST at study end
[1]; highest-dose groups
  histopathology: individual hepatocyte necrosis: increased incidence of individual hepatocyte necrosis (minimal to mild)
  histopathology: extramedullary hematopoiesis in the spleen: Increased extramedullary hematopoieisis (EMH) in the spleen
[1]; mice, following an i.v. dose for 10 days, doses as high as 291.6 mg/kg
  toxicity (weight loss or catalyst enzyme profiling different than control mice): did not find toxicity
[3]; 35 mg/kg
  maximal response: decrease in tumor volume: 27%
  tumor growth inhibition relative to control (time to regrowth): 27 days
[3]; 100 mg/kg
  maximal response: decrease in tumor volume: 37%
  tumor growth inhibition relative to control (time to regrowth): 37 days
#12424 PDX tumor model
  growth inhibition versus saline control: statistically insignificant from saline control
PDX model #14244; 35 mg/kg
  delay of regrowth compared to saline (time to regrowth): two
PDX model #14244; 100 mg/kg
  delay of regrowth compared to saline (time to regrowth): 18 days
PDX model #14244
  maximal tumor response to drug compared to control group: did not demonstrate a significant tumor response to drug
PDX 14244-10P; 100 mg/kg
  time to regrowth: growth inhibition: 21.9 days
PDX 14244-10P; Gemcitabine monotherapy (100 mg/kg)
  maximal response to therapy (tumor response): 42.11%
[4]
  MTD: around 240 mpk

## CC(=O)O[C@@]12CO[C@@H]1C[C@H](O)[C@@]1(C)C(=O)[C@H](O)C3=C(C)[C@@H](OC(=O)[C@H](O)[C@@H](NC(=O)OC(C)(C)C)c4ccccc4)C[C@@](O)([C@@H](OC(=O)c4ccccc4)[C@H]21)C3(C)C [docetaxel]
[2]
  growth arrest and tumor regression: minimal growth arrest and no tumor regression
  Time-to-tumor regrowth (TTR; time for tumor to double its volume): minor delay on time to regrowth

## CCN(CC)CCCC(=O)O[C@@H](C(=O)O[C@H]1C[C@@]2(O)[C@@H](OC(=O)c3ccccc3)[C@@H]3[C@]4(OC(C)=O)CO[C@@H]4C[C@H](O)[C@@]3(C)C(=O)[C@H](O)C(=C1C)C2(C)C)[C@@H](NC(=O)OC(C)(C)C)c1ccccc1.Cl [Compound 3, 2′-O-(4-Diethylamino Butanoyl) DTX Hydrochloride]
Hydrolysis in buffer; pH 2.5, 0 h
  Percentage of Hydrolysis (% DTX formation): 0.00%
Hydrolysis in buffer; pH 2.5, 5 h
  Percentage of Hydrolysis (% DTX formation): 0.00%
Hydrolysis in buffer; pH 2.5, 24 h
  Percentage of Hydrolysis (% DTX formation): 0.00%
Hydrolysis in buffer; pH 2.5, 48 h
  Percentage of Hydrolysis (% DTX formation): 0.00%
Hydrolysis in buffer; pH 2.5, 96 h
  Percentage of Hydrolysis (% DTX formation): 0%
Hydrolysis in buffer; pH 7.5, 0 h
  Percentage of Hydrolysis (% DTX formation): 0.00%
Hydrolysis in buffer; pH 7.5, 5 h
  Percentage of Hydrolysis (% DTX formation): 45.76%
Hydrolysis in buffer; pH 7.5, 24 h
  Percentage of Hydrolysis (% DTX formation): 100.00%
Hydrolysis in buffer; pH 7.5, 48 h
  Percentage of Hydrolysis (% DTX formation): 100.00%
Hydrolysis in buffer; pH 7.5, 96 h
  Percentage of Hydrolysis (% DTX formation): 100%

## O=c1[nH]cc(F)c(=O)[nH]1 [5-Fluorouracil]
#12424 PDX tumor model; 50 mg/kg, four weekly IV doses
  inhibition of tumor growth compared to saline control (time to regrowth): 12 days
